Paper doi:10.1101/2025.09.24.678246 (bioRxiv, 2025)
Several values for one entry are separate records, joined by “and”; a condition that tells them apart may be missing. Equal values may be shown once.

Key:
S. aureus = assay: MIC screening: S. aureus; assay type: cell-based
Description: Supplement media-1.docx, table 4: Supplemental Table S4. MIC screening of C48 against a panel of pathogens and strains | column: C48 MIC (µM)^b

BioA [1] = molecular target: T1, BioA (Mycobacterium tuberculosis, UniProt P9WQ81); assay: BioA inhibition assay (coupled BioA/BioD fluorescence displacement, IC50); assay type: biochemical
BioA [2] = molecular target: T1, BioA; assay: BioA Ki determination (tight binding, Morrison equation, 5 nM BioA); assay type: biochemical

T1 sequence (P9WQ81 whole entry, looked up): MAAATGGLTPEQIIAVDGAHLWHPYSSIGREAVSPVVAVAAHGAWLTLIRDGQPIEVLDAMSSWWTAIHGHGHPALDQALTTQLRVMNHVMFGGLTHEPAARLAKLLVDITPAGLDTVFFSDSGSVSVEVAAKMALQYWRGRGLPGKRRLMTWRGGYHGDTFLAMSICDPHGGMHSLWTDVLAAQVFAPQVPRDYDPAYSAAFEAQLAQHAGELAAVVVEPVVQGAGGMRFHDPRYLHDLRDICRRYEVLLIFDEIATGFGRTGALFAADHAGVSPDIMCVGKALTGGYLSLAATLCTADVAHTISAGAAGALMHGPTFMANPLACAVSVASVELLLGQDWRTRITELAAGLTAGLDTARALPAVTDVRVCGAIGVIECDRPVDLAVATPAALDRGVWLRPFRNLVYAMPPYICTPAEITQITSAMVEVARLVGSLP

## O=C1CCc2cc(N3CCN(C(=O)c4ccc(F)c(Br)c4)CC3)ncc21 [C48]
S. aureus
  MIC: inactive
BioA [1]; 50 nM BioA
  IC50: 34 nM
BioA [1]; C48 2.60123 nM, 50 nM BioA
  activity: 100% and 105%
  activity at 0.00260123 µM: 99.5%
BioA [1]; C48 3.90184 nM, 50 nM BioA
  activity: 98% and 101%
  activity at 0.00390184 µM: 95.4%
BioA [1]; C48 5.85277 nM, 50 nM BioA
  activity: 98.6% and 97%
  activity at 0.00585277 µM: 96.2%
BioA [1]; C48 8.77915 nM, 50 nM BioA
  activity: 94.6% and 97.2%
  activity at 0.00877915 µM: 94%
BioA [1]; C48 13.1687 nM, 50 nM BioA
  activity: 90.9% and 91.4%
  activity at 0.0131687 µM: 90.4%
BioA [1]; C48 19.7531 nM, 50 nM BioA
  activity: 81.3% and 85.6%
  activity at 0.0197531 µM: 80.3%
BioA [1]; C48 29.6296 nM, 50 nM BioA
  activity: 64.4% and 66.5%
  activity at 0.0296296 µM: 63.7%
BioA [1]; C48 44.4444 nM, 50 nM BioA
  activity: 19.1% and 25.7%
  activity at 0.0444444 µM: 20.9%
BioA [1]; C48 66.6667 nM, 50 nM BioA
  activity: 0.926% and 1.11%
  activity at 0.0666667 µM: 1.35%
BioA [1]; read-out: Vi/Vo %
  remaining activity at 0.00114183 µM: 103%
  remaining activity at 0.00171274 µM: 106%
  remaining activity at 0.00256912 µM: 106%
  remaining activity at 0.00385367 µM: 97%
  remaining activity at 0.00578051 µM: 96.5%
  remaining activity at 0.00867076 µM: 89.3%
  remaining activity at 0.0130061 µM: 88.9%
  remaining activity at 0.0195092 µM: 78.8%
  remaining activity at 0.0292638 µM: 60.8%
  remaining activity at 0.0438957 µM: 42%
  remaining activity at 0.0658436 µM: 0%
  remaining activity at 0.0987654 µM: 0%
  remaining activity at 0.148148 µM: 0%
  remaining activity at 0.222222 µM: 0%
  remaining activity at 0.333333 µM: 0%
BioA [2]; 5 nM BioA, Morrison analysis, read-out: BioA inhibition constant (Ki)
  Ki: 0.2 nM
BioA [2]; Fig. 2A, [Inhibitor C48] 0.520246 nM, read-out: Fractional Vilocity (Vi/Vo %)
  remaining activity at 0.000520246 µM: 104%
BioA [2]; Fig. 2A, [Inhibitor C48] 0.780369 nM, read-out: Fractional Vilocity (Vi/Vo %)
  remaining activity at 0.000780369 µM: 90.9%
BioA [2]; Fig. 2A, [Inhibitor C48] 1.17055 nM, read-out: Fractional Vilocity (Vi/Vo %)
  remaining activity at 0.00117055 µM: 87.2%
BioA [2]; Fig. 2A, [Inhibitor C48] 1.75583 nM, read-out: Fractional Vilocity (Vi/Vo %)
  remaining activity at 0.00175583 µM: 81%
BioA [2]; Fig. 2A, [Inhibitor C48] 2.63374 nM, read-out: Fractional Vilocity (Vi/Vo %)
  remaining activity at 0.00263374 µM: 71.8%
BioA [2]; Fig. 2A, [Inhibitor C48] 3.95062 nM, read-out: Fractional Vilocity (Vi/Vo %)
  remaining activity at 0.00395062 µM: 58.3%
BioA [2]; Fig. 2A, [Inhibitor C48] 5.92593 nM, read-out: Fractional Vilocity (Vi/Vo %)
  remaining activity at 0.00592593 µM: 37.4%
BioA [2]; Fig. 2A, [Inhibitor C48] 7.4 nM, read-out: Fractional Vilocity (Vi/Vo %)
  remaining activity at 0.0074 µM: 29.2%
BioA [2]; Fig. 2A, [Inhibitor C48] 8.88889 nM, read-out: Fractional Vilocity (Vi/Vo %)
  remaining activity at 0.00888889 µM: 20.9%
BioA [2]; Fig. 2A, [Inhibitor C48] 13.3333 nM, read-out: Fractional Vilocity (Vi/Vo %)
  remaining activity at 0.0133333 µM: 9.57%
BioA [2]; Fig. 2A, [Inhibitor C48] 20 nM, read-out: Fractional Vilocity (Vi/Vo %)
  remaining activity at 0.02 µM: 4.24%
BioA [2]; Fig. 2A, [Inhibitor C48] 30 nM, read-out: Fractional Vilocity (Vi/Vo %)
  remaining activity at 0.03 µM: 1.42%
BioA [2]; read-out: Fractional Vilocity (Vi/Vo %)
  remaining activity at […]: 13.1%
